Data on three compounds can be found in patent US5834453A, “Methods for the manufacture and use of antimicrobial sterol conjugates” (Lehigh University, priority 1997, dated 1998).

Each structure is given as a SMILES string. ≈ marks a conversion by molar mass, not a printed value. Entries after “also recorded” stand apart in the source; their conditions may differ.

The subject of one data set is A. fumigatus (H1120). In words: MIC, micro-broth dilution. Conditions: Aspergillus fumigatus, 35° C., 24 hours, read-out: ANTIMICROBIAL ACTIVITY (MIC). The format is cell-based. Here is the method:
(§1) The antimicrobial activity of the compounds according to the present invention were compared with the results obtained for squalamine as reported in Proc. Nat. Acad. Sci. USA 90:1354 (1993), supra, the disclosure of which is incorporated in toto herein. The data reported in the following table is the minimum inhibitory concentration (MIC) required for complete inhibition of microbial growth. The MIC was determined utilizing known micro-broth dilution methods in which inocula of 10^6 /ml of the test organism were incubated in 0.5× trypticase soy broth at 35° C. for 24 hours. MIC's were also tested under various pH conditions, with calcium chloride or magnesium chloride, or with immobilized horse serum.
(§2) The numbers in parentheses contained in the table correspond to accession numbers with the American Type Culture Collection (reference strains were either obtained from the American Type Culture Collection or from the Microbiology Laboratory at Memorial Sloan-Kettering Cancer Center; Bacterial strains were maintained on Columbia 5% sheep blood agar plates, and fungi were maintained on Sabouraud Dextrose agar plates).
On the technique in general: Dilution methods test growth across graded concentrations, often in twofold steps.

For a further data set, the system named is A. fumigatus (H29709). In words: MIC, micro-broth dilution. The format is cell-based. Particulars: Aspergillus fumigatus, 35° C., 24 hours, read-out: ANTIMICROBIAL ACTIVITY (MIC). Here is the method:
as §1, §2

The subject of a further data set is C. albicans (90028). Kind of data set: MIC, micro-broth dilution. The data set is classed as cell-based. Conditions: Candida albicans, 35° C., 24 hours, read-out: ANTIMICROBIAL ACTIVITY (MIC). Here is the method: as §1, §2
The next data set relates to C. neoformans (90012). Kind of data set: MIC, micro-broth dilution. The format is cell-based. Conditions: Cryptococcus neoformans, 24 h, read-out: ANTIMICROBIAL ACTIVITY (MIC). As to the method: as §1, §2
The next data set relates to C. neoformans (M68979). Kind of data set: MIC, micro-broth dilution. The format is cell-based. Conditions: Cryptococcus neoformans, 24 h, read-out: ANTIMICROBIAL ACTIVITY (MIC). Here is the method: as §1, §2
In a further data set the test system is E. cloacae (13047). In words: MIC, micro-broth dilution. The format is cell-based. Conditions: Enterobacter cloacae, 35° C., 24 hours, read-out: ANTIMICROBIAL ACTIVITY (MIC). As to the method: as §1, §2
A further data set deals with E. coli (25922). Kind of data set: MIC, micro-broth dilution. The format is cell-based. Conditions: Escherichia coli, 35° C., 24 hours, read-out: ANTIMICROBIAL ACTIVITY (MIC). As to the method:
as §1, §2

In a further data set the test system is E. faecalis (29212). In words: MIC, micro-broth dilution. Particulars: Enterococcus faecalis, 35° C., 24 hours, read-out: ANTIMICROBIAL ACTIVITY (MIC). The format is cell-based. As to the method: as §1, §2
The subject of another data set is E. faecium (T6480-9). Kind of data set: MIC, micro-broth dilution. The data set is classed as cell-based. Conditions: Enterococcus faecium, 35° C., 24 hours, read-out: ANTIMICROBIAL ACTIVITY (MIC). Here is the method: as §1, §2
A further data set deals with K. pneumoniae (13883). Kind of data set: MIC, micro-broth dilution. The data set is classed as cell-based. Conditions: Klebsiella pneumoniae, 24 h, read-out: ANTIMICROBIAL ACTIVITY (MIC). As to the method: as §1, §2
The next data set concerns P. aeruginosa (10145). In words: MIC, micro-broth dilution. The data set is classed as cell-based. Particulars: Pseudomonas aeruginosa, 35° C., 24 hours, read-out: ANTIMICROBIAL ACTIVITY (MIC). As to the method: as §1, §2
For another data set, the system named is P. aeruginosa (2853). In words: MIC, micro-broth dilution. Particulars: Pseudomonas aeruginosa, 24 h, read-out: ANTIMICROBIAL ACTIVITY (MIC). The data set is classed as cell-based. As to the method: as §1, §2
The test system of another data set is P. vulgaris (13315). In words: MIC, micro-broth dilution. Particulars: Proteus vulgaris, 35° C., 24 hours, read-out: ANTIMICROBIAL ACTIVITY (MIC). The format is cell-based. Here is the method:
as §1, §2

The subject of another data set is S. agalactiae (13813). In words: MIC, micro-broth dilution. The format is cell-based. Conditions: Streptococcus agalactiae, 35° C., 24 hours, read-out: ANTIMICROBIAL ACTIVITY (MIC). As to the method:
as §1, §2

For a further data set, the system named is S. aureus (25923). Kind of data set: MIC, micro-broth dilution. The data set is classed as cell-based. Conditions: Staphylococcus aureus, 35° C., 24 hours, read-out: ANTIMICROBIAL ACTIVITY (MIC). As to the method:
as §1, §2

In another data set the test system is S. aureus (29213). Kind of data set: MIC, micro-broth dilution. The format is cell-based. Particulars: Staphylococcus aureus, 24 h, read-out: ANTIMICROBIAL ACTIVITY (MIC). As to the method:
as §1, §2

Another data set has as its system S. aureus (H20809). Kind of data set: MIC, micro-broth dilution. Conditions: Staphylococcus aureus, 24 h, read-out: ANTIMICROBIAL ACTIVITY (MIC). The format is cell-based. Here is the method:
as §1, §2

The next data set deals with S. epidermidis (12228). Kind of data set: MIC, micro-broth dilution. The data set is classed as cell-based. Particulars: Staphylococcus epidermidis, 35° C., 24 hours, read-out: ANTIMICROBIAL ACTIVITY (MIC). As to the method:
as §1, §2

The subject of a further data set is S. marcescens (13880). Kind of data set: MIC, micro-broth dilution. The format is cell-based. Particulars: for MIC: Serratia marcescens, 24 h, read-out: ANTIMICROBIAL ACTIVITY (MIC). As to the method:
as §1, §2

The next data set has as its system S. pneumoniae (6305). In words: MIC, micro-broth dilution. The format is cell-based. Conditions: Streptococcus pneumoniae, 35° C., 24 hours, read-out: ANTIMICROBIAL ACTIVITY (MIC). Here is the method: as §1, §2
A further data set relates to S. pyrogenes (19615). Kind of data set: MIC, micro-broth dilution. Conditions: 24 h, read-out: ANTIMICROBIAL ACTIVITY (MIC). The data set is classed as cell-based. Here is the method:
as §1, §2

Data set [1] can be described thus: Hemolytic activity, minimal hemolytic concentration (MHC).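 Also: MCC here is the minimal hemolytic concentration (MHC).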 The data set is classed as cell-based, sheep. Conditions: sheep, red blood cells. As to the method: Hemolytic activity of the squalamine mimics according to the present invention were also studied by incubating sheep red blood cells for 24 hours at 37° C. in saline (final concentration of 0.5%) with or without respective concentrations of the squalamine mimics. The minimal hemolytic concentration (MHC) was determined as the lowest concentration of a mimic that raised visible hemolysis.

Turning to `C[C@H](CCCNCCCCN)[C@H]1CC[C@H]2[C@@H]3CC[C@@H]4C[C@H](O)CC[C@]4(C)[C@H]3C[C@H](O)[C@]12C` [SM-9H], the MIC worked out at 12.5 µg/mL (≈ 27.9 µM) in the data set on A. fumigatus (H1120); 6.25 µg/mL (≈ 13.9 µM) in the data set with A. fumigatus (H29709); 3.13 µg/mL (≈ 6.98 µM) in the data set with C. albicans (90028); 0.78 µg/mL (≈ 1.74 µM) in the data set with C. neoformans (90012); 0.78 µg/mL (≈ 1.74 µM) with C. neoformans (M68979); 100 µg/mL (≈ 223 µM) in the data set on E. cloacae (13047). Further, the MIC in the data set with E. coli (25922) was 25 µg/mL (≈ 55.7 µM); in the data set on E. faecalis (29212), 6.25 µg/mL (≈ 13.9 µM); in the data set with E. faecium (T6480-9) it was 25 µg/mL (≈ 55.7 µM); with K. pneumoniae (13883), 50 µg/mL (≈ 111 µM); with P. aeruginosa (10145), 12.5 µg/mL (≈ 27.9 µM); in the data set on P. aeruginosa (2853), 6.25 µg/mL (≈ 13.9 µM). Moreover, the minimum inhibitory concentration (MIC) worked out at 12.5 µg/mL (≈ 27.9 µM) in the data set with P. vulgaris (13315); 3.13 µg/mL (≈ 6.98 µM) in the data set with S. agalactiae (13813); 1.56 µg/mL (≈ 3.48 µM) with S. aureus (25923); 1.56 µg/mL (≈ 3.48 µM) in the data set with S. aureus (29213); 3.13 µg/mL (≈ 6.98 µM) in the data set with S. aureus (H20809); 1.56 µg/mL (≈ 3.48 µM) with S. epidermidis (12228). Moreover, the MIC is greater than 100 µg/mL in the data set on S. marcescens (13880), 6.25 µg/mL (≈ 13.9 µM) with S. pneumoniae (6305) and 0.78 µg/mL (≈ 1.74 µM) with S. pyrogenes (19615). The compound also yielded an MCC at 24 h in data set [1] of 50 µg/mL.
Turning to `C[C@H](CCC(=O)NCCCCN)[C@H]1CC[C@H]2[C@@H]3CC[C@@H]4C[C@H](O)CC[C@]4(C)[C@H]3C[C@H](O)[C@]12C` [SM-9], the MIC in the data set on A. fumigatus (H1120) is 50 µg/mL (≈ 108 µM); in the data set on A. fumigatus (H29709), 50 µg/mL (≈ 108 µM); in the data set with C. albicans (90028) it was 25 µg/mL (≈ 54 µM); in the data set on C. neoformans (90012), 25 µg/mL (≈ 54 µM); in the data set on C. neoformans (M68979) it was 25 µg/mL (≈ 54 µM); in the data set with E. cloacae (13047), 50 µg/mL (≈ 108 µM). Also, the MIC with E. coli (25922) worked out at 50 µg/mL (≈ 108 µM); in the data set on E. faecalis (29212), 25 µg/mL (≈ 54 µM); in the data set on E. faecium (T6480-9) it was 50 µg/mL (≈ 108 µM); with K. pneumoniae (13883), 50 µg/mL (≈ 108 µM); in the data set with P. aeruginosa (10145), 100 µg/mL (≈ 216 µM); with P. aeruginosa (2853) it was 100 µg/mL (≈ 216 µM). For the same compound, the MIC in the data set with P. vulgaris (13315) is 50 µg/mL (≈ 108 µM); in the data set with S. agalactiae (13813), 12.5 µg/mL (≈ 27 µM); with S. aureus (25923), 25 µg/mL (≈ 54 µM); with S. aureus (29213), 25 µg/mL (≈ 54 µM); with S. aureus (H20809), 25 µg/mL (≈ 54 µM); in the data set with S. epidermidis (12228), 25 µg/mL (≈ 54 µM). Moreover, the MIC in the data set on S. marcescens (13880) is greater than 100 µg/mL; in the data set on S. pneumoniae (6305), 25 µg/mL (≈ 54 µM); in the data set on S. pyrogenes (19615) it was 6.25 µg/mL (≈ 13.5 µM). In addition, in data set [1], the MCC at 24 h was 50 µg/mL.
Regarding `C[C@H](CCC(=O)NCCNCCNCCN)[C@H]1CC[C@H]2[C@@H]3CC[C@@H]4C[C@H](O)CC[C@]4(C)[C@H]3C[C@H](O)[C@]12C` [SM-11], the MIC was found to be 12.5 µg/mL (≈ 24 µM) in the data set on A. fumigatus (H1120); 12.5 µg/mL (≈ 24 µM) in the data set with A. fumigatus (H29709); 12.5 µg/mL (≈ 24 µM) in the data set with C. albicans (90028); 6.25 µg/mL (≈ 12 µM) in the data set on C. neoformans (90012); 6.25 µg/mL (≈ 12 µM) with C. neoformans (M68979); 12.5 µg/mL (≈ 24 µM) in the data set with E. cloacae (13047). Further, the MIC came out at 12.5 µg/mL (≈ 24 µM) in the data set on E. coli (25922); 12.5 µg/mL (≈ 24 µM) in the data set on E. faecalis (29212); 12.5 µg/mL (≈ 24 µM) in the data set with E. faecium (T6480-9); 12.5 µg/mL (≈ 24 µM) in the data set on K. pneumoniae (13883); 6.25 µg/mL (≈ 12 µM) in the data set on P. aeruginosa (10145); 6.25 µg/mL (≈ 12 µM) in the data set on P. aeruginosa (2853). Moreover, the MIC was 25 µg/mL (≈ 48 µM) with P. vulgaris (13315); 6.25 µg/mL (≈ 12 µM) with S. agalactiae (13813); 6.25 µg/mL (≈ 12 µM) in the data set with S. aureus (25923); 12.5 µg/mL (≈ 24 µM) with S. aureus (29213); 12.5 µg/mL (≈ 24 µM) with S. aureus (H20809); 6.25 µg/mL (≈ 12 µM) in the data set on S. epidermidis (12228). The MIC was found to be 50 µg/mL (≈ 96 µM) with S. marcescens (13880), 12.5 µg/mL (≈ 24 µM) in the data set with S. pneumoniae (6305) and 6.25 µg/mL (≈ 12 µM) in the data set with S. pyrogenes (19615). For the same compound, in the data set on S. marcescens (13880) (in words), the “activity against S. marcescens” value is given as “found even against S. marcescens; also recorded: effective against S. marcescens”. The MCC at 24 h in [1] turned out to be 25 µg/mL.

As usually defined, the MIC is the smallest concentration in the dilution series that meets the test's criterion for growth inhibition.
